Laboratory results taken from article PMC12040169 (PLOS Biology, 2025).

Test: in vitro
Settings: human, hela cells, % viability

Row | Compound | viability at 28.5 h, 10 µM | viability at 28.5 h, 10 µM (bulk resorufin, single well)
1 | CCc1nc2ccc(C(=O)Nc3ccc(C(N)=O)cc3)cn2c1N(CCN(C)C)CC1CC1 [CBK145468] | 87.1% | 
2 | Cc1csc(CC(C)n2cc(Cl)cn2)n1 (stereo not shown) [CBK304797] | 99.8% | 
3 | O=C(O)c1ccc2c(c1)C(=O)N(c1ccc(-c3ccc(N4C(=O)c5ccc(C(=O)O)cc5C4=O)cc3)cc1)C2=O [CBK261187] | 99.3% | 
4 | Nc1nc(COc2ccc(F)cc2)nc(N2CCOCC2)n1 [CBK288183] | 91.5% | 
5 | Cc1nnc2n1-c1ccccc1SC(c1ccccc1)C2 (stereo not shown) [CBK016040] | 92.9% | 
6 | CN(C)CCN/C=C1/C(=O)NC(=S)N(c2ccccc2Cl)C1=O [CBK261826] |  | 86.4%
7 | CCOC(=O)N(C)c1c(CC)nc2c(OCC(=O)C(C)(C)C)cccn12 [CBK147382] | 94.2% | 
8 | Nc1cccc(-c2nccnc2NCc2cccnc2)c1 [CBK089310] | 105% | 
9 | COc1ccc(Br)cc1S(=O)(=O)NCC(=O)Nc1ccc(F)cc1 [CBK042223] | 98.1% | 
10 | COc1ccc(Cc2nc(-c3ccccc3)c3ccccc3n2)cc1F [CBK291176] | 80.2% | 
11 | Cc1ccc(C(=O)N2CN(C(=O)CN(C)CCN(C)C)CC2(C)C)cc1 [CBK091460C] | 115% | 
12 | O=C(c1cc(S(=O)(=O)N2CCCCC2)c(Cl)cc1N1CCOCC1)N1CCOCC1 [CBK263400] | 82.5% | 
13 | O=C(c1cccs1)N1CCCC1c1nc2ccccc2[nH]1 (stereo not shown) [CBK284006] | 81.8% | 
14 | NC(=O)N1CCC(C(=O)N2CC3(CCCC3)c3c(F)cccc32)CC1 [CBK304973] | 108% | 
15 | N#CCCN(Cc1ccco1)C(=O)c1ccc(OCC2CC2)cc1 [CBK304051] | 85% | 
16 | C1=C(CNC(Cc2cccs2)c2nccs2)COCC1 (stereo not shown) [CBK284682] | 103% | 
17 | c1ccc2c(c1)CCC(Oc1cncc(N3CCNCC3)n1)C2 (stereo not shown) [CBK172295G] | 97% | 
18 | O=C(CSc1ccccc1)Nc1cc(Cl)ccc1O [CBK265837] | 109% | 
19 | Cc1nnc(Sc2cccc(C(F)(F)F)n2)s1 [CBK115222] | 95.4% | 
20 | O=C(c1ccc2[nH]nnc2c1)N1CCc2ccccc2C1 [CBK200332] | 103% | 
21 | OC(Cn1ccnc1)C1CCCCC1 (stereo not shown) [CBK010092] | 78.3% | 
22 | O=[N+]([O-])c1ccc(N2CCN(C/C=C/c3ccccc3[N+](=O)[O-])CC2)cc1 [CBK261895] | 95% | 

Row | Compound | viability at 28.5 h, 10 µM | viability at 28.5 h, 10 µM (bulk resorufin, single well)
23 | NC(=O)CC1C=CS(=O)(=O)C1 (stereo not shown) [CBK019653] | 76.7% | 
24 | Cc1cccn2cc(CSc3nnc4[nH]c5ccccc5n34)nc12 [CBK296996] | 94.1% | 
25 | O=C(OCCC1SC(NC2CC3C=CC2C3)=NC1=O)c1cc(C(F)(F)F)ccc1C(F)(F)F (stereo not shown) [CBK200058T] | 88.1% | 
26 | O=C1NCCNC(=O)C2(C/C=C/COc3ccccc31)CCN(C(=O)CCN1CCCCC1)CC2 [CBK292026] | 110% | 
27 | CC(CC(=O)O)CC(=O)N1CCN(c2ccccn2)CC1 (stereo not shown) [CBK286839] | 107% | 
28 | Nc1nc(CCC(=O)N2Cc3cnn(Cc4ccc(F)cc4)c3C2)cs1 [CBK307019] | 99.6% | 
29 | COc1cccc(-c2cncc(C3CN(Cc4cccc5ncccc45)CCO3)n2)c1 (stereo not shown) [CBK285973] | 102% | 
30 | CC(=O)Nc1ccccc1NC(=O)CN(C)S(=O)(=O)c1ccc(Cl)cc1 [CBK267373] | 93.2% | 
31 | COc1ncc(-c2nccnc2OCCc2c[nH]c3ccccc23)c(OC)n1 [CBK106743] | 79.2% | 
32 | COc1cc([N+](=O)[O-])ccc1NC(=O)NCc1ccco1 [CBK266855] | 101% | 
33 | Cc1cc(C)n(-c2cc(C)c3ccccc3n2)n1 [CBK262358] | 81.9% | 
34 | CC(C)C(=O)Nc1cc2cccnc2nc1-c1ccccc1 [CBK073647] | 94.7% | 
35 | Oc1ccc(/N=N/c2cccc(Br)c2)cc1/C=N/c1ccc(-c2nc3ncccc3o2)cc1 [CBK262009] | 85.9% | 
36 | CCCC1C(C(N)=O)=C(C)NC(C)=C1C(N)=O [CBK019102] | 105% | 
37 | Cn1cc(Nc2nc(-c3ccc(CCNS(C)(=O)=O)cc3)cs2)cn1 [CBK305065] | 109% | 
38 | Cc1noc(C)c1CC(=O)NC(C)c1nc2ccccc2s1 (stereo not shown) [CBK281467] | 107% | 
39 | CC(=O)N1CCN(C(=O)c2nn(-c3ccc(F)cc3)c3c2CCCCC3)CC1 [CBK295293] | 107% | 
40 | O=C(O)c1cccc(Nc2ncnc3ccccc23)c1 [CBK073042] | 87.8% | 
41 | COc1ccc(CNc2ccc(N3CCOCC3)c(C(=O)O)c2)cc1OC [CBK269915] | 95.2% | 
42 | COc1nccnc1OC1CCN(CCCO)CC1 [CBK084254] | 97.6% | 
43 | COc1ccc(NC(=O)/C(=C\c2ccc3c(c2)OCO3)NC(=O)c2ccco2)cc1 [CBK263607] | 86.3% | 
44 | CCC(C(=O)N1CCc2nc(C)[nH]c(=O)c2C1)c1ccccc1 (stereo not shown) [CBK284618] | 91.6% | 

Row | Compound | viability at 28.5 h, 10 µM | viability at 28.5 h, 10 µM (bulk resorufin, single well)
45 | FC(F)(F)c1cc(-c2cn3ccnc3c(Nc3ccc4[nH]ccc4c3)n2)cc(C(F)(F)F)c1 [CBK066356] | 91.7% | 
46 | S=c1[nH]nc(COc2ccc(Cl)cc2Cl)[nH]1 [CBK288511] | 80.3% | 
47 | CC(=O)Nc1cccc(C(=O)NCC(c2cccs2)N(C)C)c1 (stereo not shown) [CBK304583] | 86.7% | 
48 | CCC(C)NC(=O)Cn1c(C2CCOCC2)cc2cc(C)cnc21 (stereo not shown) [CBK284756] | 94.3% | 
49 | Cc1ccc(NS(=O)(=O)c2cccc(C(=O)NS(=O)(=O)c3ccc(F)cc3F)c2)cc1 [CBK297776] | 70.5% | 
50 | COc1cc(/C=N/c2ccc3oc(-c4cccc(I)c4)nc3c2)ccc1OC(=O)c1ccc(Cl)cc1Cl [CBK261239] | 95.3% | 
51 | Nc1ncnc2c1ncn2[C@@H]1O[C@H](CO)[C@H](O)C1O (stereo partly shown) [CBK201199] |  | 95.8%
52 | COc1ccc(C(=O)Nc2ccc(N3CCN(C(=O)C(C)(C)C)CC3)cc2)cc1 [CBK270266] | 99% | 
53 | Cc1cccc(N2CCN(CCCC(c3ccc(F)cc3)c3ccc(F)cc3)CC2)n1 [CBK025113C] | 93.9% | 
54 | Cc1cccc(-c2n[nH]/c(=N/C(=O)c3ccccc3F)s2)c1 [CBK287957] | 84.5% | 
55 | NS(=O)(=O)c1cccc(NC(=O)COc2ccc([N+](=O)[O-])cc2)c1 [CBK263624] | 92.2% | 
56 | Cc1ccc(C(=O)Nc2cccc(-n3c(C)nc4ccccc4c3=O)c2)cc1 [CBK287725] | 104% | 
57 | CC(C)n1c(=O)n(CC(=O)N(C)C2CCCCC2)c2cccnc21 [CBK283695] | 95.6% | 
58 | Sc1nnc(-c2ccncc2)n1CCc1ccccc1 [CBK265819] | 108% | 
59 | O=C(O)c1cccc(NC(=O)C2CCCCC2C(=O)O)c1 (stereo not shown) [CBK261538] | 96.6% | 
60 | COc1ccc(N(CC(=O)Nc2cccnc2)S(=O)(=O)c2ccc(C)cc2)cc1 [CBK264033] | 99.6% | 
61 | O=C1NC2(CCCCCC2)C(=O)N1Cc1coc(-c2cccs2)n1 [CBK305858] | 94.2% | 
62 | CN1CCN(c2cc(CNC(=O)c3cc(=O)[nH]c4ccccc34)ccn2)CC1 [CBK279658] | 101% | 
63 | CCN(CC)CCn1c(=N)n(CC(=O)c2ccc(Cl)c(Cl)c2)c2ccccc21 [CBK263455B] | 91.5% | 
64 | CCCC[C@H]1CC[C@H](C(=O)Oc2ccc(OC(C)C(=O)O)cc2)CC1 (stereo partly shown) [CBK160854] | 93.8% | 
65 | COCCNC(=O)c1nn2c(c1Br)NC(c1cccs1)CC2C(F)(F)F (stereo not shown) [CBK307178] | 84.5% | 
66 | Cc1[nH]nc(O)c1C(c1ccc(OC(=O)c2ccc(F)cc2)cc1)c1c(O)n[nH]c1C [CBK264816] | 96.8% | 

Row | Compound | viability at 28.5 h, 10 µM | viability at 28.5 h, 10 µM (bulk resorufin, single well)
67 | O=[N+]([O-])c1cc2c(cc1C1NN=C(c3ccccc3)S1)OCO2 (stereo not shown) [CBK262540] | 112% | 
68 | O=C(CCOc1ccccc1)Nc1cnc(-c2ccc(F)cc2)c(-c2ccco2)n1 [CBK036967] | 93.1% | 
69 | O=C(N[C@H]1CCCC[C@H]1N1CCCC1)N[C@H]1CCCC[C@H]1N1CCCC1 [CBK003419] | 115% | 
70 | CCCC1CCCN(Cc2nnnn2-c2ccc(S(C)(=O)=O)cc2)C1 (stereo not shown) [CBK304142] | 89.2% | 
71 | CS(=O)(=O)c1ccc(-c2ccc(C(=O)NCc3cccc(C(F)(F)F)c3)cn2)cc1 [CBK158874] | 91.4% | 
72 | O=C(c1ccc(N2CC=CCC2)nc1)N1CCC(N2CCOCC2)CC1 [CBK307334] | 80% | 
73 | CCc1nc(-c2ccc(N(C)C)nc2)nn1C [CBK307381] | 106% | 
74 | O=C1CC(N2CCN(Cc3ccc4c(c3)OCO4)CC2)C(=O)N1c1cc(Cl)cc(Cl)c1 (stereo not shown) [CBK074554] | 94.5% | 
75 | COc1ccc(C(=O)Nc2ccccc2N2CCN(C)CC2)c(OC)c1 [CBK269763] | 90.4% | 
76 | COc1cc2c(cc1OC)/C(=C/c1ccc[nH]1)C(=O)N2 [CBK018342] | 57.7% | 
77 | CC(C)NC(=O)[C@H]1O[C@H](CCN2CCN(c3ccc(F)cc3)CC2)CC[C@@H]1O [CBK288721] | 98.8% | 
78 | COc1ccc(Br)cc1CN1CCC(N2CCN(c3ccccc3OC)CC2)CC1 [CBK264681G] | 88.4% | 
79 | COc1nccc(N2CCC3(CCC(=O)N(CCO)C3)CC2)c1C#N [CBK307255] | 117% | 
80 | COc1ccc(N(C(C)C(=O)Nc2ccc(Cl)c(Cl)c2)S(C)(=O)=O)cc1 (stereo not shown) [CBK266872] | 114% | 
81 | O=C(NNC(=S)NCC1CCCO1)c1cccnc1 (stereo not shown) [CBK266842] | 97.5% | 
82 | COc1ccc(NS(=O)(=O)c2cccc(Cl)c2C)c(C(=O)NCc2ccccc2)c1 [CBK113953] | 85.3% | 
83 | Cc1cc(Cc2cnc(NC(=O)c3ccncc3)s2)ccc1Br [CBK298304] | 106% | 
84 | N#CCCn1cc(C(=O)Oc2ccc(-c3ccccc3)cc2)c(-c2cccc([N+](=O)[O-])c2)n1 [CBK267968] | 105% | 
85 | OC12CCCON1OC(c1ccccc1)C2 (stereo not shown) [CBK006752] | 111% | 
86 | Nc1ccc2ccc(-c3ccncc3)nc2n1 [CBK067622] | 82.8% | 
87 | CC(CN1CCCCC1)OC(=O)C(c1ccccc1)c1ccccc1 (stereo not shown) [CBK265237C] | 104% | 
88 | CC(C)S(=O)(=O)N1CC2CCCC(O)(c3cccc(F)c3)C2C1 (stereo not shown) [CBK283109] | 109% | 
